Results reported in patent publication US20190110476A1, “NOVEL ISOTHIAZOLAMIDES, PROCESSES FOR THEIR PREPARATION AND THEIR USE AS FUNGICIDES” (priority 2014, published 2019).
Marks after values point to notes of the source that are not given here.

Experiment: Measurement of LogP values by HPLC on reversed phase columns (EEC directive 79/831 Annex V.A8)
Type: physicochemical
Details: for chromatographic logP: HPLC LC-UV, acidic range, 0.1% formic acid in water and acetonitrile as eluent
Description: The abbreviations and numerations of the substituent positions used in the context of the present invention and in the following Tables are explained in detail in the section Examples hereinafter. Also, the LogP values indicated in the following Tables are explained in detail in the section Examples hereinafter. In case LogP values for different diastereoisomers of a specific compound are […], said LogP values are […] by a “+”. […] Measurement of LogP values was performed according to EEC directive 79/831 Annex V.A8 by HPLC (High Performance Liquid Chromatography) on reversed phase columns with the following methods: […] Lambda-max-values were determined using UV-spectra from 200 nm to 400 nm and the peak values of the chromatographic signals

| Structure (SMILES) | LogP [a] | also measured |
| --- | --- | --- |
| C[C@@H]1CCCC[C@H]1NC(=O)c1snc(N)c1Br (relative stereo) [I-838] |  | LogP: 2.34[a] |
| C[C@@H]1CCCC[C@H]1NC(=O)c1snc(N)c1Br (relative stereo) [I-839] |  | LogP: 2.49[a] |
| C[C@H]1[C@H](CNC(=O)c2snc(N)c2Cl)CCC[C@H]1C (relative stereo) [I-1291] |  | LogP: 3.10[a] |
| C[C@H]1CCCC[C@H]1NC(=O)c1snc(N)c1F (relative stereo) [I-1356] |  | LogP: 2.11[a] |
| C[C@@H]1CCCC[C@H]1NC(=O)c1snc(N)c1F (relative stereo) [I-1357] |  | LogP: 2.21[a] |
| C[C@H]1CCCC[C@H]1CNC(=O)c1snc(N)c1I (relative stereo) [I-1540] |  | LogP: 2.73[a] |
| C[C@H]1CCCC[C@H]1CNC(=O)c1snc(N)c1I (relative stereo) [I-1541] |  | LogP: 2.67[a] |
| COc1ccc(CNc2nsc(C(=O)N[C@@H]3CCCC[C@@H]3C)c2Cl)cc1 (relative stereo) [I-1550] |  | LogP: 4.18[a] |
| COc1ccc(CNc2nsc(C(=O)N[C@@H]3CCCC[C@H]3C)c2Cl)cc1 (relative stereo) [I-1551] |  | LogP: 4.39[a] |
| Nc1nsc(C(=O)N[C@@H]2CCCC[C@H]2Cl)c1I (relative stereo) [I-1565] |  | LogP: 2.12[a] |
| Cc1c(N)nsc1C(=O)NCC1CCCC1O (single isomer, unassigned) [I-706] |  | LogP: 0.79[a] |
| Cc1c(N)nsc1C(=O)NCC1CCCC1O (single isomer, unassigned) [I-707] |  | LogP: 0.82[a] |
| Nc1nsc(C(=O)NCC2CCCC2O)c1Cl (single isomer, unassigned) [I-772] |  | LogP: 1.09[a] |
| Nc1nsc(C(=O)NCC2CCCC2O)c1Cl (single isomer, unassigned) [I-773] |  | LogP: 0.88[a] |
| O=C(NCC1CCCCC1)c1snc(Cl)c1Cl [E-II-001, 3,4-dichloro-N-(cyclohexylmethyl)isothiazole-5-carboxamide] |  | chromatographic logP: 4.11 |
| C[C@H](NC(=O)c1snc(Cl)c1Cl)C1CCCCC1 [E-II-002] | 4.56^[a] |  |
| O=C(NCc1ccccc1Cl)c1snc(Cl)c1Cl [E-II-003] | 3.52^[a] |  |
| O=C(NCC1CCOCC1)c1snc(Cl)c1Cl [E-II-004] | 2.05^[a] |  |
| O=C(NCC1CCCOC1)c1snc(Cl)c1Cl (stereo not shown) [E-II-005] | 2.18^[a] |  |
| O=C(NCC1CCCO1)c1snc(Cl)c1Cl (stereo not shown) [E-II-006] | 2.20^[a] |  |
| O=C(NCC1CCOC1)c1snc(Cl)c1Cl (stereo not shown) [E-II-007] | 1.84^[a] |  |
| O=C(NCc1ccccc1F)c1snc(Cl)c1Cl [E-II-008] | 3.23^[a] |  |
| O=C(NCC1CCCCO1)c1snc(Cl)c1Cl (stereo not shown) [E-II-010] | 2.87^[a] |  |
| O=C(NCc1cc(F)ccc1F)c1snc(Cl)c1Cl [E-II-011] | 3.17^[a] |  |

| Structure (SMILES) | LogP [a] | also measured |
| --- | --- | --- |
| O=C(NC1CCCC2CCCCC21)c1snc(Cl)c1Cl (stereo not shown) [E-II-012] | 5.34^[a] |  |
| CC(C)(NC(=O)c1snc(Cl)c1Cl)C1CCCCC1 [E-II-013] | 5.39^[a] |  |
| O=C(c1snc(Cl)c1Cl)N(Cc1ccc(F)cc1F)C1CC1 [E-II-014] | 4.01^[a] |  |
| Cc1ccc(C(C)(C)C)c(CN(C(=O)c2snc(Cl)c2Cl)C2CC2)c1 [E-II-015] | 5.65^[a] |  |
| O=C(NCC1CCC(C(=O)NC2CC2)CC1)c1snc(Cl)c1Cl (stereo not shown) [E-II-016] | 2.21^[a] |  |
| CC1(C)C2CCC1(C)C(NC(=O)c1snc(Cl)c1Cl)C2 (stereo not shown) [E-II-017] | 5.02 | LogP [b]: 4.96 |
| CN1C2CCC1CC(NC(=O)c1snc(Cl)c1Cl)C2 (stereo not shown) [E-II-018] | 0.66^[a] |  |
| O=C(NC1CCc2ccccc21)c1snc(Cl)c1Cl (stereo not shown) [E-II-020] | 3.70 | LogP [b]: 3.63 |
| O=C(NC1CCCc2ccccc21)c1snc(Cl)c1Cl (stereo not shown) [E-II-021] | 4.07 | LogP [b]: 3.98 |
| CC1(C)C2CCC1(C)C(NC(=O)c1snc(Cl)c1Cl)C2 (stereo not shown) [E-II-022] | 5.07 | LogP [b]: 4.94 |
| CC1(C)C2CCC(CNC(=O)c3snc(Cl)c3Cl)C1C2 (stereo not shown) [E-II-023] | 5.13 | LogP [b]: 5.02 |
| CC1CCC(C(C)C)C(NC(=O)c2snc(Cl)c2Cl)C1 (stereo not shown) [E-II-024] | 5.72 | LogP [b]: 5.64 |
| O=C(NC1CCCC2CCCCC21)c1snc(Cl)c1Cl (stereo not shown) [E-II-025] | 5.27^[a] |  |
| O=C(NC1CCCC2CCCCC21)c1snc(Cl)c1Cl (stereo not shown) [E-II-026] | 5.43^[a] |  |
| CON(C(=O)c1snc(Cl)c1Cl)C(C)C1CCCCC1 (stereo not shown) [E-II-028] | 5.27 | LogP [b]: 5.09 |
| O=C(NC(CCc1ccccc1)C1CCC1)c1snc(Cl)c1Cl (stereo not shown) [E-II-029] | 5.04 | LogP [b]: 4.91 |
| COC(=O)CC(NC(=O)c1snc(Cl)c1Cl)C1CCCCC1 (stereo not shown) [E-II-030] | 4.03 | LogP [b]: 3.95 |
| O=C(NC(c1ccccc1)C1CCCCC1)c1snc(Cl)c1Cl (stereo not shown) [E-II-031] | 5.19 | LogP [b]: 5.05 |
| CC(NC(=O)c1snc(Cl)c1Cl)C1CCCO1 (stereo not shown) [E-II-032] | 2.72 | LogP [b]: 2.69 |
| O=C(NCCC1CCCCC1)c1snc(Cl)c1Cl [E-II-033] | 4.40^[a] |  |
| O=C(NC(Cc1ccccc1)C1CC=CCC1)c1snc(Cl)c1Cl (stereo not shown) [E-II-034] | 4.87 | LogP [b]: 4.75 |
| COC(=O)c1snc(N)c1Cl [E-VII-001] | 1.42^[a] |  |
| COc1ccc(CNc2nsc(C(=O)OC(C)(C)C)c2Cl)cc1 [E-VII-002] | 4.74^[a] |  |
| CC(C)(C)OC(=O)c1snc(N)c1Cl [E-VII-003] | 2.66^[a] |  |

| Structure (SMILES) | LogP [a] | also measured |
| --- | --- | --- |
| COc1ccc(CNc2nsc(C(=O)OC(C)C)c2Cl)cc1 [E-VII-004] | 4.36^[a] |  |
| CC(C)OC(=O)c1snc(N)c1Cl [E-VII-005] | 2.17 | LogP [b]: 2.16 |
| COC(=O)c1snc(N=C(c2ccccc2)c2ccccc2)c1Cl [E-VII-006] | 4.40^[a] |  |
| CCOC(=O)c1snc(N(Cc2ccccc2)Cc2ccccc2)c1Br [E-VII-008, ethyl 4-bromo-3-(dibenzylamino)-1,2-thiazole-5-carboxylate] |  | chromatographic logP: 5.8 |
| CCOC(=O)c1snc(NC(=O)c2ccc(F)cc2)c1Cl [E-VII-010] | 2.62^[a] |  |
| CC(C)OC(=O)c1snc(N(C(=O)OC(C)(C)C)C(=O)OC(C)(C)C)c1Cl [E-VII-011] | 5.00^[a] |  |
| CCOC(=O)c1cc(N(Cc2ccccc2)Cc2ccccc2)ns1 [E-VII-012, ethyl 3-(dibenzylamino)-1,2-thiazole-5-carboxylate] |  | chromatographic logP: 5.13 |
| CCOC(=O)c1snc(N(Cc2ccccc2)Cc2ccccc2)c1Cl [E-VII-013] | 5.73^[a] |  |
| CCOC(=O)c1snc(NC(=O)C(C)(C)C)c1Cl [E-VII-018] | 2.48^[a] |  |
| CCOC(=O)c1snc(NC(=O)c2ccccc2)c1Cl [E-VII-020] | 2.45^[a] |  |
| CCOC(=O)c1snc(N(C(C)=O)C(C)=O)c1Cl [E-VII-022] | 2.47^[a] |  |
| CCOC(=O)c1snc(N(Cc2ccccc2)Cc2ccccc2)c1C(F)F [E-VII-023, ethyl 3-(dibenzylamino)-4-(difluoromethyl)-1,2-thiazole-5-carboxylate] |  | chromatographic logP: 5.68 |
| CCOC(=O)c1snc(N(Cc2ccccc2)Cc2ccccc2)c1C1CC1 [E-VII-024, ethyl 4-cyclopropyl-3-(dibenzylamino)isothiazole-5-carboxylate] |  | chromatographic logP: 5.91 |
| CCOC(=O)c1snc(N(Cc2ccccc2)Cc2ccccc2)c1-c1ccc(F)cc1 [E-VII-031] | 6.11^[a] |  |
| CCOC(=O)c1snc(N)c1Br [E-VII-060] | 1.93^[a] |  |
| COc1ccc(CNc2nsc(C(=O)OC(C)C)c2NCc2ccc(OC)cc2)cc1 [E-VII-063] | 4.56 | LogP [b]: 4.51 |
| CCOC(=O)c1snc(NCc2ccc(OC)cc2)c1Cl [E-VII-069] | 3.87^[a] |  |
| COc1ccc(CNc2cc(C(=O)OC(C)C)sn2)cc1 [E-VII-070] | 3.63^[a] |  |
| CC(C)(C)OC(=O)Nc1nsc(C(=O)O)c1Cl [E-VIII-001] | 1.35^[a] |  |
| COc1ccc(CNc2nsc(C(=O)O)c2Cl)cc1 [E-VIII-002] | 2.21^[a] |  |
| O=C(O)c1cc(N(Cc2ccccc2)Cc2ccccc2)ns1 [E-VIII-003, 3-(dibenzylamino)-1,2-thiazole-5-carboxylic acid] |  | chromatographic logP: 3.35 |
| O=C(O)c1snc(N(Cc2ccccc2)Cc2ccccc2)c1Br [E-VIII-004] | 3.83^[a] |  |
| O=C(O)c1snc(N(Cc2ccccc2)Cc2ccccc2)c1Cl [E-VIII-005] | 3.75^[a] |  |
